Experimental data published in the supplement of paper PMC10307832.

How the values were obtained:
Experiment in all cases: relative viability (nuclei count vs DMSO), 5 days (fraction); higher = more cells survive
[1] = system: ABC-1
Summary of the method: (§1)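 Medians of duplicate plates are given as relative viability. That measure is the nuclei count in treated wells divided by the count in vehicle wells. Counts were taken on 4× images of lung cancer cell lines in 1536-well plates, 5 days after pin-tool dosing the day after seeding with one drug alone or a fixed anchor-drug dose plus five library-drug doses (not always all listed) in √10 steps.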

[2] = system: CAL-12T
Summary of the method: as §1

[3] = system: COR-L23
Summary of the method: as §1

[4] = system: EKVX
Summary of the method: as §1

[5] = system: H3255
Summary of the method: as §1

[6] = system: HCC-15
Summary of the method: as §1

[7] = system: HCC-827
Summary of the method: as §1

[8] = system: LK-2
Summary of the method: as §1

[9] = system: NCI-H1355
Summary of the method: as §1

[10] = system: NCI-H1437
Summary of the method: as §1

[11] = system: NCI-H1563
Summary of the method: as §1

[12] = system: NCI-H1650
Summary of the method: as §1

[13] = system: NCI-H1651
Summary of the method: as §1

[14] = system: NCI-H1734
Summary of the method: as §1

[15] = system: NCI-H2228
Summary of the method: as §1

[16] = system: NCI-H2405
Summary of the method: as §1

[17] = system: NCI-H322M
Summary of the method: as §1

[18] = system: NCI-H520
Summary of the method: as §1

[19] = system: NCI-H661
Summary of the method: as §1

[20] = system: PC-14
Summary of the method: as §1

[21] = system: PC-3 [JPC-3]
Summary of the method: as §1

[22] = system: RERF-LC-KJ
Summary of the method: as §1

[23] = system: SK-MES-1
Summary of the method: as §1

[24] = system: SW 1573
Summary of the method: as §1

Question: How did the relative viability ([1]; first compound 0.1265 µM) turn out when `C[C@@H]1CN(CC(=O)Nc2ccc3c(c2)Cc2cccc(-c4cc(=O)cc(N5CCOCC5)o4)c2S3)C[C@H](C)O1` + COc1cc2c(Oc3ccc(NC(=O)C4(C(=O)Nc5ccc(F)cc5)CC4)cc3F)ccnc2cc1OCCCN1CCOCC1 [Foretinib] (partner 0.25 µM) was run?
Answer: The relative viability was 1.11.

Question: What about the relative viability ([1]; first compound 0.4 µM) of the same compound?
Answer: Its relative viability is 1.06.

Question: And the relative viability ([1]; first compound 4 µM)?
Answer: The relative viability was 0.928.

Question: What about the relative viability ([2]; first compound 0.04 µM) of the same compound?
Answer: The relative viability was 1.13.

Question: And the relative viability ([2]; first compound 0.1265 µM)?
Answer: Its relative viability is 1.06.

Question: What about the relative viability ([2]; first compound 0.4 µM) of the same compound?
Answer: The relative viability was 1.01.

Question: What about the relative viability ([2]; first compound 4 µM) of the same compound?
Answer: The relative viability was 0.764.

Question: And the relative viability ([3]; first compound 0.04 µM)?
Answer: The relative viability was 0.991.

Question: What about the relative viability ([3]; first compound 0.1265 µM) of the same compound?
Answer: The relative viability was 1.05.

Question: And the relative viability ([3]; first compound 0.4 µM)?
Answer: The relative viability was 1.02.

Question: And the relative viability ([3]; first compound 4 µM)?
Answer: Its relative viability is 0.929.

Question: What about the relative viability ([4]; first compound 0.04 µM) of the same compound?
Answer: The relative viability was 0.947.

Question: What about the relative viability ([4]; first compound 0.1265 µM) of the same compound?
Answer: The relative viability was 1.16.

Question: And the relative viability ([4]; first compound 0.4 µM)?
Answer: The relative viability was 0.927.

Question: What about the relative viability ([4]; first compound 4 µM) of the same compound?
Answer: The relative viability was 0.76.

Question: What about the relative viability ([5]; first compound 0.04 µM) of the same compound?
Answer: The relative viability was 1.02.

Question: What about the relative viability ([5]; first compound 0.1265 µM) of the same compound?
Answer: Its relative viability is 0.837.

Question: And the relative viability ([5]; first compound 0.4 µM)?
Answer: The relative viability was 0.677.

Question: And the relative viability ([5]; first compound 4 µM)?
Answer: The relative viability was 0.783.

Question: What about the relative viability ([6]; first compound 0.04 µM) of the same compound?
Answer: The relative viability was 1.05.

Question: And the relative viability ([6]; first compound 0.1265 µM)?
Answer: The relative viability was 1.06.

Question: And the relative viability ([6]; first compound 0.4 µM)?
Answer: The relative viability was 1.02.

Question: And the relative viability ([6]; first compound 4 µM)?
Answer: Its relative viability is 0.73.

Question: What about the relative viability ([7]; first compound 0.04 µM) of the same compound?
Answer: The relative viability was 1.08.

Question: What about the relative viability ([7]; first compound 0.1265 µM) of the same compound?
Answer: Its relative viability is 1.

Question: What about the relative viability ([7]; first compound 0.4 µM) of the same compound?
Answer: Its relative viability is 1.08.

Question: And the relative viability ([7]; first compound 4 µM)?
Answer: The relative viability was 0.939.

Question: And the relative viability ([8]; first compound 0.1265 µM)?
Answer: The relative viability was 1.27.

Question: What about the relative viability ([8]; first compound 0.4 µM) of the same compound?
Answer: The relative viability was 1.16.

Question: And the relative viability ([8]; first compound 4 µM)?
Answer: Its relative viability is 1.47.

Question: And the relative viability ([9]; first compound 0.04 µM)?
Answer: The relative viability was 0.95.

Question: And the relative viability ([9]; first compound 0.1265 µM)?
Answer: The relative viability was 0.964.

Question: And the relative viability ([9]; first compound 0.4 µM)?
Answer: Its relative viability is 0.951.

Question: What about the relative viability ([9]; first compound 4 µM) of the same compound?
Answer: The relative viability was 0.858.

Question: And the relative viability ([10]; first compound 0.04 µM)?
Answer: The relative viability was 1.25.

Question: What about the relative viability ([10]; first compound 0.1265 µM) of the same compound?
Answer: Its relative viability is 1.26.

Question: What about the relative viability ([10]; first compound 0.4 µM) of the same compound?
Answer: Its relative viability is 1.29.

Question: What about the relative viability ([10]; first compound 4 µM) of the same compound?
Answer: Its relative viability is 0.957.

Question: What about the relative viability ([11]; first compound 0.04 µM) of the same compound?
Answer: Its relative viability is 0.831.

Question: What about the relative viability ([11]; first compound 0.1265 µM) of the same compound?
Answer: The relative viability was 0.894.

Question: What about the relative viability ([11]; first compound 0.4 µM) of the same compound?
Answer: Its relative viability is 0.908.

Question: And the relative viability ([11]; first compound 4 µM)?
Answer: The relative viability was 0.788.

Question: And the relative viability ([12]; first compound 0.04 µM)?
Answer: The relative viability was 1.07.

Question: What about the relative viability ([12]; first compound 0.1265 µM) of the same compound?
Answer: The relative viability was 1.14.

Question: And the relative viability ([12]; first compound 0.4 µM)?
Answer: Its relative viability is 1.04.

Question: What about the relative viability ([12]; first compound 4 µM) of the same compound?
Answer: The relative viability was 0.678.

Question: What about the relative viability ([13]; first compound 0.04 µM) of the same compound?
Answer: Its relative viability is 0.924.

Question: And the relative viability ([13]; first compound 0.1265 µM)?
Answer: Its relative viability is 1.14.

Question: What about the relative viability ([13]; first compound 0.4 µM) of the same compound?
Answer: The relative viability was 0.96.

Question: What about the relative viability ([13]; first compound 4 µM) of the same compound?
Answer: Its relative viability is 0.679.

Question: And the relative viability ([14]; first compound 0.04 µM)?
Answer: The relative viability was 0.881.

Question: What about the relative viability ([14]; first compound 0.1265 µM) of the same compound?
Answer: Its relative viability is 0.851.

Question: What about the relative viability ([14]; first compound 0.4 µM) of the same compound?
Answer: The relative viability was 0.789.

Question: And the relative viability ([14]; first compound 4 µM)?
Answer: Its relative viability is 0.976.

Question: What about the relative viability ([15]; first compound 0.04 µM) of the same compound?
Answer: The relative viability was 0.82.

Question: What about the relative viability ([15]; first compound 0.1265 µM) of the same compound?
Answer: Its relative viability is 0.689.

Question: What about the relative viability ([15]; first compound 0.4 µM) of the same compound?
Answer: The relative viability was 0.726.

Question: And the relative viability ([15]; first compound 4 µM)?
Answer: Its relative viability is 0.816.

Question: What about the relative viability ([16]; first compound 0.04 µM) of the same compound?
Answer: The relative viability was 1.02.

Question: And the relative viability ([16]; first compound 0.1265 µM)?
Answer: Its relative viability is 1.08.

Question: And the relative viability ([16]; first compound 0.4 µM)?
Answer: Its relative viability is 1.03.

Question: What about the relative viability ([16]; first compound 4 µM) of the same compound?
Answer: The relative viability was 1.03.

Question: And the relative viability ([17]; first compound 0.04 µM)?
Answer: Its relative viability is 0.508.

Question: And the relative viability ([17]; first compound 0.1265 µM)?
Answer: Its relative viability is 0.965.

Question: And the relative viability ([17]; first compound 0.4 µM)?
Answer: Its relative viability is 0.979.

Question: What about the relative viability ([17]; first compound 4 µM) of the same compound?
Answer: The relative viability was 0.874.

Question: What about the relative viability ([18]; first compound 0.04 µM) of the same compound?
Answer: The relative viability was 0.86.

Question: What about the relative viability ([18]; first compound 0.1265 µM) of the same compound?
Answer: The relative viability was 0.88.

Question: What about the relative viability ([18]; first compound 0.4 µM) of the same compound?
Answer: Its relative viability is 0.527.

Question: And the relative viability ([18]; first compound 4 µM)?
Answer: The relative viability was 0.613.

Question: And the relative viability ([19]; first compound 0.04 µM)?
Answer: The relative viability was 0.776.

Question: And the relative viability ([19]; first compound 0.1265 µM)?
Answer: Its relative viability is 1.04.

Question: And the relative viability ([19]; first compound 0.4 µM)?
Answer: The relative viability was 0.953.

Question: What about the relative viability ([19]; first compound 4 µM) of the same compound?
Answer: Its relative viability is 0.927.

Question: And the relative viability ([20]; first compound 0.04 µM)?
Answer: Its relative viability is 0.94.

Question: And the relative viability ([20]; first compound 0.1265 µM)?
Answer: The relative viability was 0.864.

Question: What about the relative viability ([20]; first compound 0.4 µM) of the same compound?
Answer: Its relative viability is 0.968.

Question: What about the relative viability ([20]; first compound 4 µM) of the same compound?
Answer: Its relative viability is 0.902.

Question: What about the relative viability ([21]; first compound 0.04 µM) of the same compound?
Answer: The relative viability was 1.02.

Question: And the relative viability ([21]; first compound 0.1265 µM)?
Answer: Its relative viability is 0.998.

Question: And the relative viability ([21]; first compound 0.4 µM)?
Answer: Its relative viability is 0.93.

Question: And the relative viability ([21]; first compound 4 µM)?
Answer: Its relative viability is 0.884.

Question: And the relative viability ([22]; first compound 0.04 µM)?
Answer: The relative viability was 0.826.

Question: And the relative viability ([22]; first compound 0.1265 µM)?
Answer: Its relative viability is 0.88.

Question: What about the relative viability ([22]; first compound 0.4 µM) of the same compound?
Answer: Its relative viability is 0.827.

Question: What about the relative viability ([22]; first compound 4 µM) of the same compound?
Answer: The relative viability was 0.871.

Question: What about the relative viability ([23]; first compound 0.04 µM) of the same compound?
Answer: The relative viability was 1.15.

Question: What about the relative viability ([23]; first compound 0.1265 µM) of the same compound?
Answer: The relative viability was 0.822.

Question: What about the relative viability ([23]; first compound 0.4 µM) of the same compound?
Answer: The relative viability was 0.76.

Question: What about the relative viability ([23]; first compound 4 µM) of the same compound?
Answer: Its relative viability is 0.746.

Question: And the relative viability ([24]; first compound 0.04 µM)?
Answer: The relative viability was 0.683.

Question: What about the relative viability ([24]; first compound 0.1265 µM) of the same compound?
Answer: The relative viability was 0.946.

Question: And the relative viability ([24]; first compound 0.4 µM)?
Answer: The relative viability was 0.936.

Question: And the relative viability ([24]; first compound 4 µM)?
Answer: Its relative viability is 0.999.
